Data as given in ChEMBL document CHEMBL4706760, “Novel Heteroaryl Compounds as Splicing Modulators for Modulating Splicing of mRNA and Uses Thereof for Treating Diseases” (ACS Med Chem Lett, 2021).

Assays:
Assay type in all cases: subcellular
[1] = Splicing modulation activity at Exon 12c mRNA in human cell lysates assessed as induction of poison exon inclusion in RNA measured cells pretreated for 24 hrs followed by first 16 hrs of incubation treated with cycloheximide for 8 hrs by qPCR
[2] = Splicing modulation activity at wild type Exon 12/12b/12c/13 mRNA in human cell lysates assessed as induction of poison exon inclusion in RNA measured cells pretreated for 24 hrs followed by first 16 hrs of incubation treated with cycloheximide for 8 hrs by qPCR
[3] = Splicing modulation activity at Exon E7b mRNA in human cell lysates assessed as induction of poison exon inclusion in RNA measured cells pretreated for 24 hrs followed by first 16 hrs of incubation treated with cycloheximide for 8 hrs by qPCR
[4] = Splicing modulation activity at Exon E7c mRNA in human cell lysates assessed as induction of poison exon inclusion in RNA measured cells pretreated for 24 hrs followed by first 16 hrs of incubation treated with cycloheximide for 8 hrs by qPCR
[5] = Splicing modulation activity at wild type Exon 7/7b/7c/8 mRNA in human cell lysates assessed as induction of poison exon inclusion in RNA measured cells pretreated for 24 hrs followed by first 16 hrs of incubation treated with cycloheximide for 8 hrs by qPCR

Row | SMILES | EC50 [1] | IC50 [2] | EC50 [3] | EC50 [4] | IC50 [5]
1 | CN(c1ccc(-c2cc(F)c(-c3ccn(C)c(=O)c3)cc2O)nn1)[C@H]1C[C@]2(C)CCC[C@](C)(C1)N2 | 238 nM | 116 nM |  |  | 
2 | CN(c1ccc(-c2cc(F)c(-c3cn[nH]c3)cc2O)nn1)[C@@H]1C[C@H]2CCC[C@@H](C1)N2 |  |  | 168 nM | 162 nM | 46 nM
3 | CNC(=O)/C=C/c1cc(O)c(-c2ccc(N(C)[C@H]3C[C@]4(C)CCC[C@](C)(C3)N4)nn2)cc1F | 126 nM | 162 nM | 41 nM | 310 nM | 99.1 nM
4 | CN(c1ccc(-c2cc(F)c(-c3ccn(CF)c(=O)c3)cc2O)nn1)[C@H]1C[C@]2(C)CCC[C@](C)(C1)N2 | 92.9 nM | 94.7 nM | 88 nM | 293 nM | 93.9 nM
5 | CNC(=O)c1ccc2cc(-c3ccc(N(C)[C@H]4C[C@]5(C)CCC[C@](C)(C4)N5)nn3)c(O)cc2n1 | 46.1 nM | 54 nM | 9.3 nM | 60.2 nM | 27.6 nM
6 | CN(c1ncc(-c2ccc(-c3cn[nH]c3)cc2O)nn1)[C@@H]1C[C@H]2CC[C@@H](C1)N2 |  |  | 39.6 nM | 294 nM | 150 nM
